Test results taken from ChEMBL document CHEMBL1155780, “Lack of aquaporin-4 water transport inhibition by antiepileptics and arylsulfonamides” (Bioorg Med Chem, 2008).

Target: Aquaporin-4 (Homo sapiens) (UniProt P55087)
Details: FRT
Description: Inhibition of AQP4 expressed in rat FRT cells assessed as osmotic water permeability at 100 uM after 15 mins by stopped-flow light scattering method

Chain of Aquaporin-4 (Homo sapiens) (P55087 whole entry): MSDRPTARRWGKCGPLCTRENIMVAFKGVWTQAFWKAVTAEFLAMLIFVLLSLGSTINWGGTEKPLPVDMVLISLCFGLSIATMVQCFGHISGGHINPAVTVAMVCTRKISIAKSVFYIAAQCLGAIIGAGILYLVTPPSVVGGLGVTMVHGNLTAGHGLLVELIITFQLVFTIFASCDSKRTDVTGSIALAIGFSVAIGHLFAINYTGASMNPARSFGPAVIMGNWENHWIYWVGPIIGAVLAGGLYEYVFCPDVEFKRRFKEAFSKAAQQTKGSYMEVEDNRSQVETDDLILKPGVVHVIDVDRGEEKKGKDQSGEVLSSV

Structure (SMILES): CCOc1ccc2nc(S(N)(=O)=O)sc2c1
- permeability: 12900 ×10⁻⁶ cm/s

Structure (SMILES): NS(=O)(=O)Cc1noc2ccccc12
- permeability: 12900 ×10⁻⁶ cm/s

Structure (SMILES): O=C1NC(=O)C(c2ccccc2)(c2ccccc2)N1
- permeability: 12900 ×10⁻⁶ cm/s

Structure (SMILES): CC(=O)Nc1ccc(S(N)(=O)=O)cc1
- permeability: 12900 ×10⁻⁶ cm/s

Structure (SMILES): CNS(=O)(=O)Cc1ccc2[nH]cc(CCN(C)C)c2c1
- permeability: 12900 ×10⁻⁶ cm/s

Structure (SMILES): CC(=O)Nc1nnc(S(N)(=O)=O)s1
- permeability: 12900 ×10⁻⁶ cm/s

Structure (SMILES): CC1(C)O[C@@H]2[C@@H](CO[C@@]3(COS(N)(=O)=O)OC(C)(C)O[C@@H]23)O1
- permeability: 12900 ×10⁻⁶ cm/s
